# Source: ChEMBL document CHEMBL1128172, “Structure-activity relationships of cyclic pentapeptide endothelin A receptor antagonists” (J Med Chem, 1995)
# Target: T1, Endothelin-1 receptor (Sus scrofa, UniProt Q29010)
# T1 sequence (Q29010 whole entry): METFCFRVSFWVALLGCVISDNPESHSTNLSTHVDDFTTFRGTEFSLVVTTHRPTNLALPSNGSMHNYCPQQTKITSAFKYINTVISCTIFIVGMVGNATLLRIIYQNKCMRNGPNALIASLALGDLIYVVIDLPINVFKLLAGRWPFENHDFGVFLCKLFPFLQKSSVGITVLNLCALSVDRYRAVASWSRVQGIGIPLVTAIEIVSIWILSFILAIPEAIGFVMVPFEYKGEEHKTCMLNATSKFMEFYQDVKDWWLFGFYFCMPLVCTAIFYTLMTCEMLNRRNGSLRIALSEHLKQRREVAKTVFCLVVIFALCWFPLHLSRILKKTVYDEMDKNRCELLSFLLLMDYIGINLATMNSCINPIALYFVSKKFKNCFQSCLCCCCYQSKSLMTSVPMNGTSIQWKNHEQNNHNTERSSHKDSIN
# Assay: The compound was tested for binding inhibitory activity against Endothelin A receptor from porcine aortic smooth muscle membranes.
row,Structure (SMILES),IC50 max
1,CC(C)C[C@@H]1NC(=O)[C@@H](C)NC(=O)[C@H](CC(=O)O)NC(=O)[C@H](Cc2c[nH]c3ccccc23)NC(=O)[C@@H](CC(C)C)NC1=O,440 nM
2,CC[C@H](C)[C@H]1NC(=O)[C@@H]2CCCN2C(=O)[C@@H](CC(=O)O)NC(=O)[C@@H](Cc2c[nH]c3ccccc23)NC(=O)[C@H](CC(C)C)NC1=O,12 nM
3,CC[C@@H](C)[C@H]1NC(=O)[C@@H]2CCCN2C(=O)[C@@H](CC(=O)O)NC(=O)[C@@H](Cc2c[nH]c3ccccc23)NC(=O)[C@H](CC(C)C)NC1=O,64 nM
4,CC(C)C[C@@H]1NC(=O)[C@@H]([C@H](C)O)NC(=O)[C@H](C)NC(=O)[C@@H](CC(=O)O)NC(=O)[C@@H](Cc2c[nH]c3ccccc23)NC1=O,4200 nM
5,CC(C)C[C@H]1NC(=O)[C@H](C(C)C)NC(=O)[C@H]2C[C@@H](O)CN2C(=O)[C@H](CC(=O)O)NC(=O)[C@H](Cc2c[nH]c3ccccc23)NC1=O,18 nM
6,CC(C)C[C@@H]1NC(=O)[C@@H](C(C)C)NC(=O)[C@@H]2CCCCN2C(=O)[C@@H](CC(=O)O)NC(=O)[C@@H](Cc2c[nH]c3ccccc23)NC1=O,13 nM
7,"CC(C)C[C@@H]1NC(=O)[C@@H](C(C)C)NC(=O)[C@H](CCCCN)NC(=O)[C@@H](CC(=O)O)NC(=O)[C@@H](Cc2c[nH]c3ccccc23)NC1=O (single isomer, unassigned)",200 nM
8,"CC(C)C[C@@H]1NC(=O)[C@@H](C(C)C)NC(=O)[C@H](CO)NC(=O)[C@@H](CC(=O)O)NC(=O)[C@@H](Cc2c[nH]c3ccccc23)NC1=O (single isomer, unassigned)",190 nM
9,"CC(C)C[C@@H]1NC(=O)CNC(=O)[C@H](CO)NC(=O)[C@@H](CC(=O)O)NC(=O)[C@@H](Cc2c[nH]c3ccccc23)NC1=O (single isomer, unassigned)",35000 nM
10,"CC(C)C[C@@H]1NC(=O)[C@@H](C(C)C)NC(=O)[C@H](C)NC(=O)[C@@H](CCC(=O)O)NC(=O)[C@H](Cc2c[nH]c3ccccc23)NC1=O (single isomer, unassigned)",> 100000 nM
11,"CC(C)C[C@@H]1NC(=O)[C@@H](C(C)C)NC(=O)[C@H](C)NC(=O)[C@H](CCC(=O)O)NC(=O)[C@@H](Cc2c[nH]c3ccccc23)NC1=O (single isomer, unassigned)",> 100000 nM
12,"CC(C)C[C@@H]1NC(=O)[C@@H](CC(=O)O)NC(=O)[C@H](CO)NC(=O)[C@@H](CC(=O)O)NC(=O)[C@@H](Cc2c[nH]c3ccccc23)NC1=O (single isomer, unassigned)",> 100000 nM
13,"CC(C)C[C@@H]1NC(=O)[C@@H](C(C)(C)C)NC(=O)[C@@H]2CCCN2C(=O)[C@@H](CC(=O)O)NC(=O)[C@@H](Cc2c[nH]c3ccccc23)NC1=O (single isomer, unassigned)",15 nM
14,"CC(C)C[C@@H]1NC(=O)[C@@H](C(C)C)NC(=O)[C@@H]2CCCN2C(=O)[C@@H](CCC(=O)O)NC(=O)[C@@H](Cc2c[nH]c3ccccc23)NC1=O (single isomer, unassigned)",410 nM
15,"CC(C)C[C@@H]1NC(=O)[C@@H](C(C)C)NC(=O)[C@H](CCC(N)=O)NC(=O)[C@@H](CC(=O)O)NC(=O)[C@@H](Cc2c[nH]c3ccccc23)NC1=O (single isomer, unassigned)",160 nM
16,"CC(C)C[C@@H]1NC(=O)[C@@H](C(C)C)NC(=O)[C@@H]2CCCN2C(=O)[C@@H](CC(=O)O)NC(=O)[C@@H](Cc2cn(C=O)c3ccccc23)NC1=O (single isomer, unassigned)",18 nM
17,"CC(C)C[C@@H]1NC(=O)[C@@H](c2ccccc2)NC(=O)[C@@H]2CCCN2C(=O)[C@@H](CC(=O)O)NC(=O)[C@@H](Cc2c[nH]c3ccccc23)NC1=O (single isomer, unassigned)",24 nM
18,"CC(C)C[C@@H]1NC(=O)[C@@H](C(C)C)NC(=O)[C@H](C)NC(=O)[C@@H](CCC(=O)O)NC(=O)[C@@H](Cc2c[nH]c3ccccc23)NC1=O (single isomer, unassigned)",3000 nM
